{"source": "patent US20240209325A1", "about": "“CANCER PROPHYLAXIS AND THERAPY USING TARGETED VIRAL NANOPARTICLES” (priority 2021, published 2024)", "key": {"[1]": {"target": "T1, S100A9 (Homo sapiens, UniProt P06702)", "T1 sequence (P06702 1-114)": "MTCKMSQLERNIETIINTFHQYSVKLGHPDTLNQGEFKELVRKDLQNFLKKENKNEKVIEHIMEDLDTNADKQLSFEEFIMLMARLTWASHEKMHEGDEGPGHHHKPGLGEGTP", "settings": "peptides that target or recognize and bind S100A9; screening described in Park et al. 2021; cited from earlier work"}, "[2]": {"system": "4T1-Luc cells", "experiment": "Treatment of 4T1-Luc lung metastasis (immunotherapy)", "format": "in vivo, Balb/c mice", "settings": "200 μg i.v. 3 days post tumor inoculation", "method": "4T1-luc cells (100,000/mouse) were injected i.v. into female Balb/c mice (n=15). […] Tumor growth was monitored by total bioluminescence imaging based on the i.p. injection of 150 mg/kg of body weight D-luciferin. Total bioluminescence was determined using the Living Image 3.0 software, and ROI were quantified as average counts.\nA representative IVIS image on day 9 is shown in FIG. 5E while further imaging can be found in FIG. 13. […] The unabated tumor growth led to the mice in the PBS and CPMV groups all dying within 15 days or reaching their clinical endpoints before being sacrificed (FIG. 13B)."}, "[3]": {"system": "innate immune cells in the lungs (DCs, neutrophils, macrophages)", "experiment": "Flow cytometry of innate immune cell profile in lungs", "format": "in vivo, C57BL/6 mice", "settings": "200 μg i.v., lungs after 24 h; FACS (FIG. 6C)", "method": "Lungs were harvested after 24 hours. Harvested organs were each placed in separate gentle MACS C tubes (Miltenyi Biotec) and dissociated with enzymatic solutions (lung dissociation kits, Miltenyi Biotec). The C tube lid was tightly screwed, inverted, and inserted in a gentleMACS dissociator (Militenyi Biotec). Organs were minced and digested on appropriate gentleMACS programs. After digestion, cells were passed through 40 μm pore size strainers and centrifuged at 500 g for 5 min. The cell pellet was resuspended in 5 mL of 1× RBC lysis solution (eBioscience) and incubated at RT for 2 min, followed by the addition of RPMI-1640 medium to stop lysis. Cells were centrifuged again at 500 g for 5 min and resuspended in PBS with 1% BSA and 2 mM EDTA (FACS solution). Total cell count and viability were found using trypan blue solution (Sigma-Aldrich) and a Countess™ automated cell counter (Invitrogen). Cell concentrations were adjusted to 1.0×10^7 cells/mL.\nTo reduce background staining of antibodies, 0.25 μg of purified rat anti-mouse CD16/32 (Biolegend) was added to 100 μL cell suspensions before adding to the conjugated antibodies. Cells were incubated at RT for ten minutes prior to immunofluorescence staining. All antibodies for immunofluorescence staining were purchased from Biolegend and diluted in FACS solution according to the manufacturer's recommendation. […]"}, "[4]": {"system": "4T1-Luc cells", "experiment": "4T1-Luc i.v. challenge to CPMV pre-treated mice (prophylaxis)", "format": "in vivo, Balb/c mice", "method": "After 5 days, the mice were challenged by i.v. injection of 200,000 4T1-Luc cells. The mice were imaged with the IVIS using luminescent imaging every 3 days by injecting intraperitoneally (i.p.) 150 mg/kg of body weight D-luciferin. ROI measurements were taken through the Living Image 3.0 software. The weight of the mice was also tracked every 3 days. After 25 days (20 days after tumor inoculation), the lungs were collected and fixed in Bouin's solution for 3 days. Each tumor nodule on the lungs was counted manually and averaged between the mice in each group.\nTo determine whether the prophylactic effect of S100A9-targeted CPMV could be replicated in other tumor models, we first exposed Balb/C mice to CPMV and S100A9-targeted CPMV by i.v. injection, and then challenged mice with luciferase-labeled 4T1 (4T1-Luc) cells. This experimental lung metastatic model mimics metastatic triple negative breast cancer (TNBC). Tumor cell challenge was carried out 5 days post CPMV exposure (FIG. 4G). […] By day 21, all the mice in the PBS treatment group had to be sacrificed due to significant weight loss (FIG. 12B). […] The lungs were harvested after 25 days and fixed in Bouin's solution before manual counting of tumor nodules (FIG. 4H, FIG. 4I). […] There was no significant difference between the CPMV and the CPMV-G3."}, "[5]": {"experiment": "Biodistribution of Cy5-labeled CPMV and CCMV particles after i.v. injection (ex vivo IVIS)", "settings": "for accumulation/clearance in liver (share of fluorescence signal): Cy5-labeled particles, 200 μg i.v., organs harvested after 24 h; for lung homing (in words): healthy and B16F10 tumor-bearing mice, i.v., 24 h", "method": "Healthy and B16F10 metastatic tumor-bearing C57BL/6 female mice were used for biodistribution studies of the Cy5-labeled CPMV and CCMV from Section 2. B16F10 cells (200,000 cells/mouse) were administered i.v. and the tumors were matured for one week. […] After 24 hours, the lungs were harvested and then imaged and quantified for fluorescence using the IVIS (Xenogen).\nBoth healthy and B16F10 tumor-bearing mice were injected with native and H6/G3-conjugated CPMV and CCMV; to enable tracking the nanoparticles were labeled with Cy5. Lungs and other organs were harvested 24 h following intravenous (i.v.) nanoparticle injection and imaged ex vivo to observe localization of the nanoparticles in the lungs, spleen, kidney, and liver (FIG. 3A)."}, "[6]": {"system": "B16F10 melanoma cells", "experiment": "B16F10 i.v. challenge to CPMV and CCMV pre-treated mice (prophylaxis)", "format": "in vivo, C57BL/6J mice", "excerpt": "After 7 days, the mice were challenged by i.v. administration of 200,000 B16F10 melanoma cells per mouse. Lungs were harvested at day 21 (day 14 after tumor inoculation) and fixed in a 10% (v/v) neutral-buffered formalin solution overnight. Following fixation, the lungs were stored in 70% (v/v) ethanol (EtOH), and the number of tumor nodules per lung was manually counted.\nAfter tumor nodule counting, the fixed lung samples were submitted to the La Jolla Institute for Immunology for hematoxylin and eosin (H&E) staining and imaging. Paraffin-embedded blocks were sectioned at 4 μm on a Leica RM2125 RTS microtome. The sections were then floated on a 42° C. tissue flotation bath and mounted onto Fisher Superfrost Plus microscope slides and subjected to H&E staining. Scanning was accomplished using a ZEISS AxioScan Z1 using a 20× objective. The ratio of tumor cells to total cells was measured from the histology slides using QuPath software^68.\nTo investigate the suitability of S100A9-targeted VNPs to serve as a prophylactic immunotherapy preventing manifestation of lung metastasis, we used a lung metastasis mouse model using C57BL/6J mice i.v. challenged with B16F10 melanoma cells. C57BL/6J mice were pre-exposed to the CPMV (therapeutic) and CCMV (control) nanoparticles with and without the H6/G3 targeting ligands, one week before being challenged i.v. with B16F10 melanoma cells (FIG. 4A). Lungs were harvested 2 weeks post tumor challenge, and tumor nodules were manually counted. […] This experiment was repeated one more time with only the CPMV particles as well as the H6 peptide only control (FIG. 4D)."}, "[7]": {"system": "RAW-Blue cells: Toll-like receptor (TLR) and NOD stimulation", "experiment": "RAW-Blue immunogenicity assay (SEAP, QUANTI-Blue)", "format": "cell-based", "settings": "for immunogenicity, activation of NF-κB and AP-1, CPMV compared to CCMV (in words): FIG. 6B, 0.5 μg, 18 hours per method", "method": "The immunogenicity of CPMV and CCMV was compared through a RAW-Blue™ assay (Invivogen). Briefly, 100,000 RAW-Blue™ cells/well were incubated with 0.5 μg of CPMV and CCMV, 50 EU mL-1 E. coli endotoxin standard control (ThermoScientific), or culture media for 18 hours. Toll-like receptor (TLR) and nucleotide-binding oligomerization domain (NOD) stimulation was assessed by measuring the levels of secreted embryonic alkaline phosphatase (SEAP) using a QUANTI-Blue™ (Invivogen) assay. Absorbance was measured at 655 nm using a Tecan microplate reader.\nThe immunogenicity between CPMV and its peptide-conjugated counterparts was also assessed using a RAW-Blue™ assay. […] A QUANTI-Blue™ assay was run like before, and absorbance was measured at 655 nm."}, "[8]": {"target": "T2, S100A9 (Mus musculus, UniProt P31725)", "T2 construct": "confocal imaging of tumor-bearing lungs sections was performed; from tissue; host or cells: lungs of B16F10-inoculated C57BL/6 mice", "T2 sequence (P31725 1-113)": "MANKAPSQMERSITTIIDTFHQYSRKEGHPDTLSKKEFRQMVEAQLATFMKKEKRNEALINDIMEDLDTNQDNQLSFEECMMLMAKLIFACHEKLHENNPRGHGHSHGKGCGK", "experiment": "Confocal imaging of co-localization with S100A9 in tumor-bearing lung sections", "format": "in vivo, B16F10-inoculated mice"}, "[9]": {"target": "T3, CPMV-Cy5-PEG (cowpea mosaic virus nanoparticle without targeting peptide) (Cowpea mosaic virus, UniProt P03599 460-833; P03599 834-1022)", "T3 sequence 1": "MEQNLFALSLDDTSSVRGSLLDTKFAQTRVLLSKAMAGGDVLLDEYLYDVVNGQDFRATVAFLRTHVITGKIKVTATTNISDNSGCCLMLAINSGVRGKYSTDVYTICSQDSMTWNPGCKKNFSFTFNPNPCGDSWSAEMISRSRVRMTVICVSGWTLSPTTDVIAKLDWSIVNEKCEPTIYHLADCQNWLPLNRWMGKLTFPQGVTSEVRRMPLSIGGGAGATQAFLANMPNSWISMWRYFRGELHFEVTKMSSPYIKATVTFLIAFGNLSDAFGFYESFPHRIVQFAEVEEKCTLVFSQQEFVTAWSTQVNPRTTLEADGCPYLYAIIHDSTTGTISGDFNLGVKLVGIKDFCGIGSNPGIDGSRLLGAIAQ", "T3 sequence 2": "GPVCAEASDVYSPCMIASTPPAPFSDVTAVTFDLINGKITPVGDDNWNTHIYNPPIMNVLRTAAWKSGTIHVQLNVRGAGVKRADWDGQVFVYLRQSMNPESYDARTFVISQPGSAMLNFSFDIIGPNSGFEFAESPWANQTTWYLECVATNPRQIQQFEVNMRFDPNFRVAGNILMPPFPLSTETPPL", "experiment": "confocal imaging of tumor-bearing mouse lung sections after i.v. injection of the particles, S100A9 stained with antibody"}}, "note": "Entries after “also recorded” stand apart in the source; their conditions may differ.", "data": [{"molecule": "peptide that binds S100A9, ASSHIHHGGGS (SEQ ID NO: 10) [MTP2]", "values": [{"measurement": "Kd", "setting": "[1]", "result": 77.6, "unit": "µM"}]}, {"molecule": "peptide that binds S100A9, ACNSHRHGACGGGS (SEQ ID NO: 12) [MTP5]", "values": [{"measurement": "Kd", "setting": "[1]", "result": 67.6, "unit": "µM"}]}, {"molecule": "Cowpea mosaic virus [CPMV]", "values": [{"measurement": "time by which all mice died or reached clinical endpoints", "setting": "[2]", "result": "≤ 15", "unit": "days"}, {"measurement": "tumor burden / tumor growth by bioluminescence (in words)", "setting": "[2]", "result": "significant tumor burden; also recorded: unable to slow 4T1-Luc tumor growth"}, {"measurement": "immune cell recruitment and activation in the lungs (in words)", "setting": "[3]", "result": "did not produce a significant impact"}, {"measurement": "decrease in tumor nodules compared to PBS", "setting": "[4]; 225 μg i.v. 5 days before challenge, lungs harvested after 25 days", "result": 10.6, "unit": "fold"}, {"measurement": "tumor growth by luminescent imaging (in words)", "setting": "[4]; IVIS every 3 days, up to day 21", "result": "no signs of tumor growth by day 21"}, {"measurement": "side effects (in words)", "setting": "[4]; throughout the experiment", "result": "no apparent side effects were observed"}, {"measurement": "weight of the mice (in words)", "setting": "[4]; tracked every 3 days throughout the experiment", "result": "stayed fairly consistent"}, {"measurement": "accumulation/clearance in liver (share of fluorescence signal)", "setting": "[5]", "result": 75, "unit": "%"}, {"measurement": "lung homing (in words)", "setting": "[5]", "result": "do not home to the lungs; also recorded: did not accumulate in the lungs"}, {"measurement": "reduction of the ratio of tumor:total cells", "setting": "[6]; H&E lung histology, QuPath (FIG. 4F)", "result": 1.7, "unit": "fold"}, {"measurement": "decrease of tumor nodules (tumor burden) in the lungs compared to PBS", "setting": "[6]; first study (FIG. 4C), 200 μg i.v. 7 days before challenge, lungs 2 weeks post challenge", "result": 2.1, "unit": "fold"}, {"measurement": "reduction of tumor nodules compared to PBS", "setting": "[6]; repeated experiment (FIG. 4D)", "result": 1.7, "unit": "fold"}, {"measurement": "TLR and/or NOD agonism / immunostimulation (in words)", "setting": "[7]; CPMV, peptide-conjugated CPMV and peptides only, 10 μg, 24 h (FIG. 6A)", "result": "strong TLR and/or NOD agonists"}, {"measurement": "immunogenicity, activation of NF-κB and AP-1, CPMV compared to CCMV (in words)", "setting": "[7]", "result": "much more immunogenic compared to CCMV; also recorded: higher level of activation; also recorded: immunostimulated by CPMV"}, {"measurement": "association/co-localization with S100A9 (in words)", "setting": "[8]", "result": "no association with S100A9"}]}, {"molecule": "peptide that binds S100A9, ACNSVHQHHCGGGS (SEQ ID NO: 13) [MTP6]", "values": [{"measurement": "Kd", "setting": "[1]", "result": 39.6, "unit": "µM"}]}, {"molecule": "scrambled control peptide MDPHAHNGGGS (SEQ ID NO: 16) [reference compound]", "values": [{"measurement": "KD", "setting": "[1]", "result": "no binding"}]}, {"molecule": "cowpea chlorotic mottle virus [CCMV]", "values": [{"measurement": "accumulation/clearance in liver (share of fluorescence signal)", "setting": "[5]", "result": 75, "unit": "%"}, {"measurement": "lung homing (in words)", "setting": "[5]", "result": "does not home to the lungs"}, {"measurement": "effect on tumor burden in the lungs (in words)", "setting": "[6]; first study (FIG. 4C), compared to PBS", "result": "This effect was not seen"}, {"measurement": "immunogenicity, activation of NF-κB and AP-1, CPMV compared to CCMV (in words)", "setting": "[7]", "result": "immunostimulated by CPMV and not CCMV"}]}, {"molecule": "peptide that binds S100A9, HNHMADPGGGS (SEQ ID NO: 11) [MTP3]", "values": [{"measurement": "Kd", "setting": "[1]", "result": 117, "unit": "µM"}]}, {"molecule": "S100A9 (S100 calcium-binding protein A9), endogenous, in lung sections of B16F10 tumor-bearing C57BL/6 mice (other, also called MRP14; calgranulin B) ANKAPSQMERSITTIIDTFHQYSRKEGHPDTLSKKEFRQMVEAQLATFMKKEKRNEALINDIMEDLDTNQDNQLSFEECMMLMAKLIFACHEKLHENNPRGHGHSHGKGCGK", "values": [{"measurement": "binding result", "setting": "[9]", "result": "no binding"}]}]}
